In patent publication US8722849B2, “Polypeptides” (Novo Nordisk A/S, priority 2011, dated 2014):
Values after ≈ are worked out from the molar mass of the structure shown. Where two headings read alike, the source gives them in different places. Starred links: 1 amine or outer side, 2 acyl side, 3 side chain; linkers in the order of their positions; H or OH if unused. Positions of bridges follow the written chain, without caps; N, C: chain ends. Residues, ends and D or L forms follow the SMILES beside them. *: point of attachment. C20 diacid = O=C(O)CCCCCCCCCCCCCCCCCCC(=O)*; C18 diacid = O=C(O)CCCCCCCCCCCCCCCCC(=O)*; γGlu = O=C(O)[C@H](CCC(=O)[*:2])N[*:1]

Key:
[1] = molecular target: T1, human amylin receptor (amylin 3(a) receptor: human calcitonin receptor + RAMP-3) (Homo sapiens, UniProt O60896+P30988); test: Assay (II)a functional CRE-luciferase assay, human amylin receptor; type: cell-based; conditions: Table 2; BHK amylin 3(a)-receptor/CRE-luc cells
T1 construct: expressed in transfected cells; host or cells: BHK570
T1 sequence (P30988 25-474): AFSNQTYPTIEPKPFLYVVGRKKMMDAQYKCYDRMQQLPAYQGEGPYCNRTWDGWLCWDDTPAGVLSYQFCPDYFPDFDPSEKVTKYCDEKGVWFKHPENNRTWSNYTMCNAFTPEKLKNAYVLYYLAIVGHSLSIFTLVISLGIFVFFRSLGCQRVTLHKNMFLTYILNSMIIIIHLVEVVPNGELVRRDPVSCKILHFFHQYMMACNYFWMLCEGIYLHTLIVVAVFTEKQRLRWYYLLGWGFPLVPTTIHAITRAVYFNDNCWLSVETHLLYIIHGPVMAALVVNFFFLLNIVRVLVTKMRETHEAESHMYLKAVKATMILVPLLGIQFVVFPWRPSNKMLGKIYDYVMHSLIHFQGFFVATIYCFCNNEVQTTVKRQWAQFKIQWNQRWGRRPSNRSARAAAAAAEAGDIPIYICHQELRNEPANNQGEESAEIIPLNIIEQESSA
T1 sequence (O60896 24-148 partner): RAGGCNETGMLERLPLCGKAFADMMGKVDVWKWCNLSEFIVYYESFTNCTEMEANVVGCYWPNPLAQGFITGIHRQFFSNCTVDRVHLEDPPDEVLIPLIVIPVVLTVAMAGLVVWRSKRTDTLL

[2] = molecular target: T2, human calcitonin receptor (Homo sapiens, UniProt P30988); test: Assay (II)a functional CRE-luciferase assay, human calcitonin receptor; type: cell-based; conditions: Table 7; human calcitonin (CTa) receptor
T2 construct: expressed in transfected cells; host or cells: BHK570
T2 sequence (P30988 25-474): T1 sequence (P30988 25-474)

[3] = Assay (III) ThT fibrillation assay for physical stability; type: physicochemical; conditions: ThT fibrillation assay
In short: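 Freshly prepared formulations, pH-adjusted, with 1 μM ThT; four or eight replicates incubated at 37 °C under 960 rpm orbital shaking. Fluorescence (ex 444/em 485 nm) read every 20 min; […]. Peptide concentration measured by RP-HPLC before and after the run.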

[4] = Assay (IV) determination of solubility; type: physicochemical
In short: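 Solubility was profiled across pH 3.0–8.0 after 18 hours at room temperature: a ~500 nmol/ml aqueous polypeptide solution was diluted 1:1 into 100 mM glycylglycine or bistrispropane buffers. After centrifugation, HPLC gave the dissolved concentration.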

[5] = bistrispropane buffer, pH 6, pH 6.0, read-out: Solubility pH 6.0
[6] = bistrispropane buffer, pH 7, pH 7.0, read-out: Solubility pH 7.0
[7] = bistrispropane buffer, pH 7.5, pH 7.5, read-out: Solubility pH 7.5
[8] = bistrispropane buffer, pH 8, pH 8.0, read-out: Solubility pH 8.0
[9] = glycylglycine buffer, pH 3, pH 3.0, read-out: Solubility pH 3.0
[10] = glycylglycine buffer, pH 4, pH 4.0, 18 hours at room temperature, Table 2, read-out: Solubility pH 4.0
[11] = glycylglycine buffer, pH 4, pH 4.0, read-out: Solubility pH 4.0
[12] = glycylglycine buffer, pH 5, pH 5.0, read-out: Solubility pH 5.0
[13] = bistrispropane buffer, pH 6.5, pH 6.5, read-out: Solubility pH 6.5
[14] = bistrispropane buffer, pH 7, pH 7.0, 18 hours at room temperature, Table 3, read-out: Solubility pH 7.0

| EC50 [1] [nM] | EC50 [2] [nM] | ThT pH 4.0 lag time (h) [3] [h] | solubility at 18 h [4, 5] [µM] | solubility at 18 h [4, 6] [µM] | solubility at 18 h [4, 7] [µM] | solubility at 18 h [4, 8] [µM] | solubility at 18 h [4, 9] [µM] | solubility at 18 h [4, 10] [µM] | solubility at 18 h [4, 11] [µM] | solubility at 18 h [4, 12] [µM] | solubility at 18 h [4, 13] [µM] | solubility at 18 h [4, 14] [µM] | ThT pH 4.0 lag time [3] [h] | Structure (SMILES) |
| --- | --- | --- | --- | --- | --- | --- | --- | --- | --- | --- | --- | --- | --- | --- |
| 0.151 | 0.74 | 1.7 | 6 (≈ 28.2 µg/mL) | 1 (≈ 4.7 µg/mL) | 13 (≈ 61.1 µg/mL) | 73 (≈ 343 µg/mL) | > 200 | > 200 | > 200 | > 200 |  |  |  | CC[C@H](C)[C@H](NC(=O)[C@@H]1CCCN1C(=O)CNC(=O)[C@H](Cc1ccccc1)NC(=O)[C@H](CC(N)=O)NC(=O)[C@H](CC(N)=O)NC(=O)[C@H](CO)NC(=O)[C@H](CO)NC(=O)[C@H](Cc1c[nH]cn1)NC(=O)[C@@H](NC(=O)[C@H](CC(C)C)NC(=O)[C@H](Cc1ccccc1)NC(=O)[C@H](CCC(=O)O)NC(=O)[C@H](C)NC(=O)[C@H](CC(C)C)NC(=O)[C@H](CCCNC(=N)N)NC(=O)[C@H](CCC(N)=O)NC(=O)[C@@H](NC(=O)[C@H](C)NC(=O)[C@@H]1CSSC[C@H](NC(=O)[C@H](Cc2c[nH]cn2)NC(=O)[C@H](Cc2c[nH]cn2)NC(=O)[C@H](Cc2c[nH]cn2)NC(=O)CC[C@H](NC(=O)CCCCCCCCCCCCCCCCCCC(=O)O)C(=O)O)C(=O)N[C@@H](CC(N)=O)C(=O)N[C@@H]([C@@H](C)O)C(=O)N[C@@H](C)C(=O)N[C@@H]([C@@H](C)O)C(=O)N1)[C@@H](C)O)C(C)C)C(=O)N[C@@H](CC(C)C)C(=O)N1CCC[C@H]1C(=O)N1CCC[C@H]1C(=O)N[C@H](C(=O)N[C@@H](CC(N)=O)C(=O)N[C@H](C(=O)NCC(=O)N[C@@H](CO)C(=O)N[C@@H](CC(N)=O)C(=O)N[C@H](C(=O)N[C@@H](Cc1ccc(O)cc1)C(N)=O)[C@@H](C)O)C(C)C)[C@@H](C)O [Example 20, N-alpha-[(S)-4-Carboxy-4-(19-carboxynonadecanoylamino)butyryl]-His-His-[His1,Glu14]-pramlintide] ({C20 diacid-γGlu}-HHHCNTATCATQRLAEFLVHSSNNFGPILPPTNVGSNTY-NH2; disulfide 4-9 (inferred); C-terminus assumed) |
| 0.055 | 0.0525 | 5 | > 200 | > 200 | > 200 | > 200 | > 200 | > 200 | > 200 | > 200 | > 200 | > 200 |  | CC[C@H](C)[C@H](NC(=O)[C@@H]1CCCN1C(=O)CNC(=O)[C@H](Cc1ccccc1)NC(=O)[C@H](CC(N)=O)NC(=O)[C@H](CC(N)=O)NC(=O)[C@H](CO)NC(=O)[C@H](CO)NC(=O)[C@H](Cc1c[nH]cn1)NC(=O)[C@@H](NC(=O)[C@H](CC(C)C)NC(=O)[C@H](Cc1ccccc1)NC(=O)[C@H](CCC(=O)O)NC(=O)[C@H](C)NC(=O)[C@H](CC(C)C)NC(=O)[C@H](CCCNC(=N)N)NC(=O)[C@H](CCC(N)=O)NC(=O)[C@@H](NC(=O)[C@H](C)NC(=O)[C@@H]1CSSC[C@H](NC(=O)[C@H](CCCCN)NC(=O)CC[C@H](NC(=O)CCCCCCCCCCCCCCCCCCC(=O)O)C(=O)O)C(=O)N[C@@H](CC(N)=O)C(=O)N[C@@H]([C@@H](C)O)C(=O)N[C@@H](C)C(=O)N[C@@H]([C@@H](C)O)C(=O)N1)[C@@H](C)O)C(C)C)C(=O)N[C@@H](CC(C)C)C(=O)N1CCC[C@H]1C(=O)N1CCC[C@H]1C(=O)N[C@H](C(=O)N[C@@H](CC(N)=O)C(=O)N[C@H](C(=O)NCC(=O)N[C@@H](CO)C(=O)N[C@@H](CC(N)=O)C(=O)N[C@H](C(=O)N1CCC[C@H]1C(N)=O)[C@@H](C)O)C(C)C)[C@@H](C)O [Example 86, N-alpha-[(S)-4-Carboxy-4-(19-carboxynonadecanoylamino)butyryl]-[Glu14,Pro37]-pramlintide] ({C20 diacid-γGlu}-KCNTATCATQRLAEFLVHSSNNFGPILPPTNVGSNTP-NH2; disulfide 2-7 (inferred); C-terminus assumed) |
| 0.102 | 0.169 | 10 | > 200 | > 200 | > 200 | > 200 | > 200 | > 200 | > 200 | > 200 | > 200 | > 200 |  | CC[C@H](C)[C@H](NC(=O)[C@@H]1CCCN1C(=O)CNC(=O)[C@H](Cc1ccccc1)NC(=O)[C@H](CC(N)=O)NC(=O)[C@H](CC(N)=O)NC(=O)[C@H](CO)NC(=O)[C@H](CO)NC(=O)[C@H](Cc1c[nH]cn1)NC(=O)[C@H](Cc1c[nH]cn1)NC(=O)[C@H](CC(C)C)NC(=O)[C@H](Cc1ccccc1)NC(=O)[C@H](CCC(=O)O)NC(=O)[C@H](C)NC(=O)[C@H](CC(C)C)NC(=O)[C@H](CCCNC(=N)N)NC(=O)[C@H](CCC(N)=O)NC(=O)[C@@H](NC(=O)[C@H](C)NC(=O)[C@@H]1CSSC[C@H](NC(=O)[C@H](CCCCN)NC(=O)[C@H](CCC(=O)O)NC(=O)CC[C@H](NC(=O)CCCCCCCCCCCCCCCCC(=O)O)C(=O)O)C(=O)N[C@@H](CC(N)=O)C(=O)N[C@@H]([C@@H](C)O)C(=O)N[C@@H](C)C(=O)N[C@@H]([C@@H](C)O)C(=O)N1)[C@@H](C)O)C(=O)N[C@@H](CC(C)C)C(=O)N1CCC[C@H]1C(=O)N1CCC[C@H]1C(=O)N[C@H](C(=O)N[C@@H](CC(N)=O)C(=O)N[C@H](C(=O)NCC(=O)N[C@@H](CO)C(=O)N[C@@H](Cc1c[nH]cn1)C(=O)N[C@H](C(=O)N[C@@H](Cc1ccc(O)cc1)C(N)=O)[C@@H](C)O)C(C)C)[C@@H](C)O [Example 60, N-alpha-[(S)-4-Carboxy-4-(17-carboxyheptadecanoylamino)butyryl]-Glu-[Glu14,His17,His35]-pramlintide] ({C18 diacid-γGlu}-EKCNTATCATQRLAEFLHHSSNNFGPILPPTNVGSHTY-NH2; disulfide 3-8) |
| 0.101 | 0.615 | >45 | > 200 | 6 (≈ 28.6 µg/mL) | 2 (≈ 9.54 µg/mL) | 24 (≈ 115 µg/mL) | > 200 | > 200 | > 200 | > 200 | 158 (≈ 754 µg/mL) |  | >45 | CC[C@H](C)[C@H](NC(=O)[C@@H]1CCCN1C(=O)CNC(=O)[C@H](Cc1ccccc1)NC(=O)[C@H](CC(N)=O)NC(=O)[C@H](CC(N)=O)NC(=O)[C@H](CO)NC(=O)[C@H](CO)NC(=O)[C@H](Cc1c[nH]cn1)NC(=O)[C@H](CCCNC(=N)N)NC(=O)[C@H](CC(C)C)NC(=O)[C@H](Cc1ccccc1)NC(=O)[C@H](CCC(=O)O)NC(=O)[C@H](C)NC(=O)[C@H](CC(C)C)NC(=O)[C@H](CCCNC(=N)N)NC(=O)[C@H](CCC(N)=O)NC(=O)[C@@H](NC(=O)[C@H](C)NC(=O)[C@@H]1CSSC[C@H](NC(=O)[C@H](CCCCN)NC(=O)[C@H](Cc2c[nH]cn2)NC(=O)[C@H](Cc2c[nH]cn2)NC(=O)CC[C@H](NC(=O)CCCCCCCCCCCCCCCCCCC(=O)O)C(=O)O)C(=O)N[C@@H](CC(N)=O)C(=O)N[C@@H]([C@@H](C)O)C(=O)N[C@@H](C)C(=O)N[C@@H]([C@@H](C)O)C(=O)N1)[C@@H](C)O)C(=O)N[C@@H](CC(C)C)C(=O)N1CCC[C@H]1C(=O)N1CCC[C@H]1C(=O)N[C@H](C(=O)N[C@@H](CC(N)=O)C(=O)N[C@H](C(=O)NCC(=O)N[C@@H](CO)C(=O)N[C@@H](Cc1c[nH]cn1)C(=O)N[C@H](C(=O)N[C@@H](Cc1ccc(O)cc1)C(N)=O)[C@@H](C)O)C(C)C)[C@@H](C)O [Example 69, N-alpha-[(S)-4-Carboxy-4-(19-carboxynonadecanoylamino)butyryl]-His-His-[Glu14,Arg17,His35]-pramlintide] ({C20 diacid-γGlu}-HHKCNTATCATQRLAEFLRHSSNNFGPILPPTNVGSHTY-NH2; disulfide 4-9 (inferred)) |
